In ChEMBL document CHEMBL1201862, “PubChem BioAssay data set” (2004):
The source made the active and inactive calls.

Tests used:
[1] = molecular target: Luciferin 4-monooxygenase (Photinus pyralis, UniProt P08659); assay: Counter Screen for Luciferase-based Assay Positives. [Related pubchem assays: 620, 618, 411 ]
[2] = molecular target: Melanocortin receptor 4 (Homo sapiens, UniProt P32245); assay: MC4R antagonist potency on cAMP, dose response, cell-based, TR-FRET, biased antagonists (AID 602298); format: functional;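 note: antagonist potency against agonist-stimulated cAMP production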
Chain of Melanocortin receptor 4 (P32245 whole entry): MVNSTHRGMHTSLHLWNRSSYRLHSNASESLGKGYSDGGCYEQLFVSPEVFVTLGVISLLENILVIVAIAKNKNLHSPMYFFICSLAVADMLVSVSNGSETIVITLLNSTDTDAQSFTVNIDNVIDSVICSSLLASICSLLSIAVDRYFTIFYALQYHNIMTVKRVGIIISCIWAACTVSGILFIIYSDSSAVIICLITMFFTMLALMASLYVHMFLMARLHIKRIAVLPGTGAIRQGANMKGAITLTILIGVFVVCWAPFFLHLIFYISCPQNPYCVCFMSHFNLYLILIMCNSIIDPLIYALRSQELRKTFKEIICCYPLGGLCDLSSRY

[3] = nonselective inhibitors of cellular cAMP signaling, dose response, counter-screen for MC4R biased antagonist project, cell-based, TR-FRET cAMP detection (AID 602305); format: functional;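 note: U2OS cells stimulated with forskolin near its EC80 as the cAMP inducer; potency is for inhibition of forskolin-stimulated cAMP signaling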
[4] = tested on: HT-1080; assay: cytotoxicity in HT1080 fibrosarcoma cells, cell-based, fluorescence readout (AID 620); format: functional; details: Homo sapiens
[5] = molecular target: Ras and Rab interactor 1/Tyrosine-protein kinase ABL1 (Homo sapiens, UniProt P00519+Q13671); format: functional;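 note: biochemical TR-FRET dose-response test measuring inhibition of binding between Rin1 and Abl proteins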
Chain of Ras and Rab interactor 1/Tyrosine-protein kinase ABL1 (P00519 whole entry): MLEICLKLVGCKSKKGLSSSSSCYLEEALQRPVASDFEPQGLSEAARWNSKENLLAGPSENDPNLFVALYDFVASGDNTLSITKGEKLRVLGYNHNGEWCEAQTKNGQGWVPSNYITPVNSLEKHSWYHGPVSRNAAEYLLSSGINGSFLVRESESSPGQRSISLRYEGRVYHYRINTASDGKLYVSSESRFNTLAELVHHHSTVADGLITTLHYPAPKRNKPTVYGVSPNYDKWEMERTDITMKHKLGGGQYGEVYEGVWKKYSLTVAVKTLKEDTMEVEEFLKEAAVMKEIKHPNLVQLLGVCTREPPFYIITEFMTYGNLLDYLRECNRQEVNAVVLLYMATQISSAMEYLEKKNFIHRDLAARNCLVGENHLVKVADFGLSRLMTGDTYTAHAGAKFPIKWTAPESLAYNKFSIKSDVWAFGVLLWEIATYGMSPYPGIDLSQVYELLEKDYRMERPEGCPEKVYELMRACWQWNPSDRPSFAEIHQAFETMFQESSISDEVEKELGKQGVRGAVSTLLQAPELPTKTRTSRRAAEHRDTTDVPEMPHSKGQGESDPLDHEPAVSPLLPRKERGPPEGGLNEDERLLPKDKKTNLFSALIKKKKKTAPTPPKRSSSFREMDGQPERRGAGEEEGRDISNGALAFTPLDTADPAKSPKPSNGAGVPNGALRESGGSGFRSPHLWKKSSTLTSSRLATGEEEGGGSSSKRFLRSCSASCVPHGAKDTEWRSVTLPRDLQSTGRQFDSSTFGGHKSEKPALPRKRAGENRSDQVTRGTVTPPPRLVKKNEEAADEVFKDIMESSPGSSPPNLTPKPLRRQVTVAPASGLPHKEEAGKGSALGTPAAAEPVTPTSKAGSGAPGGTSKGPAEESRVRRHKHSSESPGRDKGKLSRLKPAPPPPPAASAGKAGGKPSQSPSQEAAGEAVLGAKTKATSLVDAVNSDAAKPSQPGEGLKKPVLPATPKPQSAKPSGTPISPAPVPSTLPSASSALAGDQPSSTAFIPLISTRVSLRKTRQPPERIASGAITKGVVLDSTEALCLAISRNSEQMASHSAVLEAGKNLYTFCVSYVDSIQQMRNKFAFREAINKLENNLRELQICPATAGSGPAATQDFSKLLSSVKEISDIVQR
Chain of Ras and Rab interactor 1/Tyrosine-protein kinase ABL1 (Q13671 whole entry): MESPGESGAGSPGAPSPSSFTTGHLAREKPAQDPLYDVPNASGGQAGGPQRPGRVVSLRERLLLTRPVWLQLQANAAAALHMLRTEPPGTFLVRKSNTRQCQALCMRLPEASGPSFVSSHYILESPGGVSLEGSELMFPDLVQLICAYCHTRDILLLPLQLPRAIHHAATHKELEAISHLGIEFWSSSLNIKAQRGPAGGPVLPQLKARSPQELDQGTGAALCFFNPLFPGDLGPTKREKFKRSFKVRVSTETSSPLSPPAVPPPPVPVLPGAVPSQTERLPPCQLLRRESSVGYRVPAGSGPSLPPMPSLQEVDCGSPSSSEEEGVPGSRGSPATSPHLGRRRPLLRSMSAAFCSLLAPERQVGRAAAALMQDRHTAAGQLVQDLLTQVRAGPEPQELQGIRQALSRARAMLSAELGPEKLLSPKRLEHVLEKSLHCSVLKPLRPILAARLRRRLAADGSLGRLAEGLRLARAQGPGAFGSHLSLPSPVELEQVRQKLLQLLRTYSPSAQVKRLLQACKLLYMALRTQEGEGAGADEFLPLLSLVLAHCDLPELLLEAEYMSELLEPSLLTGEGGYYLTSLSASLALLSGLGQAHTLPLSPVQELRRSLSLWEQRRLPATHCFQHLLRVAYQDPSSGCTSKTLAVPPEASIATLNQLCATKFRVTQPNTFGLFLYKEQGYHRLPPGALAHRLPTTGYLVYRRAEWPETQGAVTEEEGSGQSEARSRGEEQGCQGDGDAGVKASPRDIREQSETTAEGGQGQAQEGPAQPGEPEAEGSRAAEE

[6] = AlphaScreen signal interference compounds, dose response, artefact control for ARNT-TACC3 interaction inhibitor project, biochemical, luminescence, cherry-pick (AID 651705); format: functional;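 note: AlphaScreen bead proximity signal that flags compounds interfering with the detection technology; potency reflects signal decrease which marks the compound as an assay artifact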
[7] = molecular target: Cytochrome P450 2D6 (Homo sapiens, UniProt P10635);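 note: CYP2D6 member of a cytochrome P450 panel assay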
Chain of Cytochrome P450 2D6 (P10635 whole entry): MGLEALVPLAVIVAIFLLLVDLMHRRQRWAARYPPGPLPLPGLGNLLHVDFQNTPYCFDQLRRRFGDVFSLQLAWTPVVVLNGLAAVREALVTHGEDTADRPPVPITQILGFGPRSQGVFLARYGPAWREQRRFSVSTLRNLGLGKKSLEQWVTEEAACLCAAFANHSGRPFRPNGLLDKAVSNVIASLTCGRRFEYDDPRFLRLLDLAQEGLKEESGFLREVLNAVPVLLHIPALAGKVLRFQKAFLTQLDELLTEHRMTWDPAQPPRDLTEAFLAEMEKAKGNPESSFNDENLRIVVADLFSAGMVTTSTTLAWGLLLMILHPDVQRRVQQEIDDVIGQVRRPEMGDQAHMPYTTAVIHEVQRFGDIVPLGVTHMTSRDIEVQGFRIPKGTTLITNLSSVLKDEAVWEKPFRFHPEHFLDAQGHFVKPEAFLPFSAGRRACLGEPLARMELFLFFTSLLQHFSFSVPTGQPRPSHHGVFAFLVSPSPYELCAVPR

[8] = molecular target: Cytochrome P450 2C19 (Homo sapiens, UniProt P33261); assay: Cytochrome panel assay with activity outcomes. Panel member name: p450-cyp2c19 Compounds with AC50 equal or less than 10 uM are considered active; format: functional; details: read-out: AC50
[9] = ARNT/TACC3 interaction disruptors, potency, confirmation, biochemical, AlphaScreen, cherry-picked samples (AID 651703); format: functional, Homo sapiens;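 note: His-tagged ARNT PAS-B domain paired with GST-TACC3 E629A dimer coactivator fragment; potency of inhibitors that break up the complex and lower AlphaScreen signal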
[10] = molecular target: Cytochrome P450 2C9 (Homo sapiens, UniProt P11712)
Chain of Cytochrome P450 2C9 (P11712 whole entry): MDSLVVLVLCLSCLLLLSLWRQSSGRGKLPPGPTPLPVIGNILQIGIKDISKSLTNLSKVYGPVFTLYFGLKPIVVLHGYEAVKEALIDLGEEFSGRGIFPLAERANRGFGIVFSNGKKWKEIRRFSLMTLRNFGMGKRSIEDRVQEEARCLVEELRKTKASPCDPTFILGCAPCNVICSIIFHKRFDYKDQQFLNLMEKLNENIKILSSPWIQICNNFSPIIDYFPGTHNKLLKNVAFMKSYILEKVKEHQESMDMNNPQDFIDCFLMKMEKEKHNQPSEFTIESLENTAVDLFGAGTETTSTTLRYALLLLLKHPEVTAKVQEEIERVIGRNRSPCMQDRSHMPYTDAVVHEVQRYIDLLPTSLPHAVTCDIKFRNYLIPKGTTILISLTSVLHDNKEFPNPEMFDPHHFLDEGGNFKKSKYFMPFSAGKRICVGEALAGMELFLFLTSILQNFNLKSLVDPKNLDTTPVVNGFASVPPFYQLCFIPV

[11] = molecular target: T1, Low molecular weight phosphotyrosine protein phosphatase (Homo sapiens, UniProt P24666); format: functional; details: read-out: IC50_Mean;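 note: Dose-response confirmation assay measuring inhibition of LMPTP enzyme activity by fluorescence intensity read-out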
T1 sequence (P24666 whole entry): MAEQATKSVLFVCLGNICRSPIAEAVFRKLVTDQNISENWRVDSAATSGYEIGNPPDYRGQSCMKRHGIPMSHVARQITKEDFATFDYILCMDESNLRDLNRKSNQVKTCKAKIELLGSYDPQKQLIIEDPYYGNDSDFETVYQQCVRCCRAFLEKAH

[12] = molecular target: T2, Short transient receptor potential channel 4 (Mus musculus, UniProt Q9QUQ5); assay: mouse TRPC4 channel activators, dose response, cell-based, HEK293 TRPC4/mu-opioid, Fluo-4 calcium (AID 434937); format: functional
T2 sequence (Q9QUQ5 whole entry): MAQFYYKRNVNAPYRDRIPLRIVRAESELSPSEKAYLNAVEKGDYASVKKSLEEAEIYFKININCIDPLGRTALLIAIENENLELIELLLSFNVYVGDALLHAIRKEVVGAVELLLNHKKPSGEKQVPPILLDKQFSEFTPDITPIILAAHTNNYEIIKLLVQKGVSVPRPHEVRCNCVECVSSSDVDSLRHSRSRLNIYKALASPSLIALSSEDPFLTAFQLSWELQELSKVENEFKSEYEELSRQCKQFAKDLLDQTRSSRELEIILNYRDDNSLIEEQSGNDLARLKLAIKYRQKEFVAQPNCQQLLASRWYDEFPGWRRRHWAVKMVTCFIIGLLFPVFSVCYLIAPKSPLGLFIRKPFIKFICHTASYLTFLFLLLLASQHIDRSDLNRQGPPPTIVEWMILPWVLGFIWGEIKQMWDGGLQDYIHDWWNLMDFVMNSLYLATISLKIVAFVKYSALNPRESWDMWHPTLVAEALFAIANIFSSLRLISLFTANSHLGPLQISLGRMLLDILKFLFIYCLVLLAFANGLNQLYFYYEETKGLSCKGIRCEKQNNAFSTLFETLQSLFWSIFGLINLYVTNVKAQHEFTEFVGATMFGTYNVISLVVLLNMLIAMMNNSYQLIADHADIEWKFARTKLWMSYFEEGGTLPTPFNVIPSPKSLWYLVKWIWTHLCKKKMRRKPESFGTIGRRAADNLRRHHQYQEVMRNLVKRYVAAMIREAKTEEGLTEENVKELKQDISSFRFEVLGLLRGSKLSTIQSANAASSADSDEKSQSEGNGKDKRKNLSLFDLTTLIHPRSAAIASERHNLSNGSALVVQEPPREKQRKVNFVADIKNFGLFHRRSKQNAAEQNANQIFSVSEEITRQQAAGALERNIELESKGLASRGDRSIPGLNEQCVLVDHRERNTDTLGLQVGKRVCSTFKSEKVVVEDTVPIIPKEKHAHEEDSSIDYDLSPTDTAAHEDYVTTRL

[13] = molecular target: T3, Tyrosine-protein phosphatase non-receptor type 22 (Homo sapiens, UniProt Q9Y2R2); assay: LYP phosphatase inhibition for selectivity, dose response, selectivity assay for LMPTP inhibitor project, biochemical, fluorescence, LYP catalytic domain (AID 652006); format: functional; details: read-out: IC50_Mean
T3 sequence (Q9Y2R2 whole entry): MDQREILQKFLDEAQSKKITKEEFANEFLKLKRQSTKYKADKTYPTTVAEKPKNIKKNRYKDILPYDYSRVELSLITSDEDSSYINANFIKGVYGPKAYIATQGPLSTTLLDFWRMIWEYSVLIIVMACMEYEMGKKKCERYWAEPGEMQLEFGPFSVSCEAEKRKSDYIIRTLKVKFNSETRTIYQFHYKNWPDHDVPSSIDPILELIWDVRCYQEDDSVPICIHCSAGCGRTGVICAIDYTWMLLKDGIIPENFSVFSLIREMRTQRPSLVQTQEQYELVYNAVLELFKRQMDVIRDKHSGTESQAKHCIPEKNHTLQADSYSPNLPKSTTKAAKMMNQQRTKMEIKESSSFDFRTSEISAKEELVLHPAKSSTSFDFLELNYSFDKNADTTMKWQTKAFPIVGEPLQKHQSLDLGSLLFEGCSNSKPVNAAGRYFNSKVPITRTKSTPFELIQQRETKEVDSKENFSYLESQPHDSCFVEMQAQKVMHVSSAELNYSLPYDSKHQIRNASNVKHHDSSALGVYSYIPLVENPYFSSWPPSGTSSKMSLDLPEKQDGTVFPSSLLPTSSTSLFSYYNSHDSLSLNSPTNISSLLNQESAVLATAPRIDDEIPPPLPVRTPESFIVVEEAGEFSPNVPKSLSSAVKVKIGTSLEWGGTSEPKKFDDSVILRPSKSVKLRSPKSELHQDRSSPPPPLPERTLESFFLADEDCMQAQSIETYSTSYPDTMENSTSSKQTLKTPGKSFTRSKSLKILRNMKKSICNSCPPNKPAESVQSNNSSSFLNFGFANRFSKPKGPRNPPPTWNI

[14] = molecular target: Photoreceptor-specific nuclear receptor (Homo sapiens, UniProt Q9Y5X4); format: functional, cell-based;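 note: CHO-S cells with Gal4-NCOR and VP16-NR2E3 two-hybrid luciferase reporter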
Chain of Photoreceptor-specific nuclear receptor (Q9Y5X4 whole entry, the tested form may be a part): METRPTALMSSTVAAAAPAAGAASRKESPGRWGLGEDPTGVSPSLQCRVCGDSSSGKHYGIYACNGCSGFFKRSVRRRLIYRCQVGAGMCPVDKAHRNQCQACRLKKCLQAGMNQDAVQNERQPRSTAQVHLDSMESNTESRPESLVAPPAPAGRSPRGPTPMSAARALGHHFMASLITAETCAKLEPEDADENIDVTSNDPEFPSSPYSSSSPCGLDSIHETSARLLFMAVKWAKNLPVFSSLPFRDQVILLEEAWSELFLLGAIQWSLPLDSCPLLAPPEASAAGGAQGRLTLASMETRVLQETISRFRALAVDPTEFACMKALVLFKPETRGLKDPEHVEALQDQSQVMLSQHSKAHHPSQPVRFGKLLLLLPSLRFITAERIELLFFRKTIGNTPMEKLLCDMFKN

[15] = molecular target: T4, Streptokinase A (Streptococcus pyogenes serotype M1, UniProt P10520); assay: S. pyogenes streptokinase expression inhibitors, potency, dose response, plasminogen activation absorbance, OD405 (AID 1914); format: functional, Streptococcus pyogenes M1 GAS;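 note: secreted streptokinase activity via plasminogen activation per viability signal from cell pellet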
T4 sequence (P10520 whole entry): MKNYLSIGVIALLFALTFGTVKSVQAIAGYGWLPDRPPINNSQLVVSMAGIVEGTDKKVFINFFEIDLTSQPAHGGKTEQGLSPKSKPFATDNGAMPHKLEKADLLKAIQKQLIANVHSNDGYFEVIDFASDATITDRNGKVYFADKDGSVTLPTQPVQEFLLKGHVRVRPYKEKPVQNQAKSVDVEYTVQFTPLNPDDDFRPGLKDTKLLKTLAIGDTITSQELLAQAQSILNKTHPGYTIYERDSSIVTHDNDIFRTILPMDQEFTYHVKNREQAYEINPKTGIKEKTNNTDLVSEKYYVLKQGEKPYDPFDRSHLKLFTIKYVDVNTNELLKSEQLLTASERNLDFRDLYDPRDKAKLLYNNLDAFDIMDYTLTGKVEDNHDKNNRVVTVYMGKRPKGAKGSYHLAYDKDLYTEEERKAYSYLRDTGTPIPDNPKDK

[16] = cytotoxicity toward NIH3T3 fibroblasts, dose response, counter-screen, cell-based, ATP luminescence, mouse fibroblasts (AID 2010); format: functional;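 note: cells exposed to compound for about 90 hours before reading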
[17] = HEp-2 cell cytotoxicity, dose response, cytotoxicity control for RSV inhibitor project, HTS (AID 2410); format: functional; details: human respiratory syncytial virus
[18] = tested on: Streptococcus sp. 'group A'; assay: growth inhibition of control SK(-) GAS strain, dose response, counter-screen for streptokinase expression inhibitor project, luminescence, kanamycin, BacTiterGlo, confirmation (AID 1900); format: functional, organism-based
[19] = tested on: Streptococcus; assay: Group A Streptococcus viability loss, dose response, counter-screen for streptokinase expression inhibitor project, luminescence, BacTiterGlo (AID 1915); format: functional, organism-based;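 note: potency for reduction of bacterial viability or growth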
[20] = Luminescence Cell-Based Dose Retest to Confirm Inhibitors of Cancer Stem Cells. [Related pubchem assays (depositor defined):AID2717, AID2721]; format: functional; details: Homo sapiens
[21] = inhibitors of intracellular T. cruzi replication, confirmation, NIH3T3 host cells, beta-gal luminescence (AID 2044); format: functional, cell-based;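 note: intracellular parasites grown in NIH/3T3 mouse fibroblasts as host cells; luminescent beta-galactosidase reporter signal from transgenic T. cruzi replicating inside host cells; inhibitors lower the luminescence signal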
[22] = NIH-3T3 fibroblast cytotoxicity, dose response, cytotoxicity control, cell-based, fluorescence, Alamar Blue, secondary assay (AID 2327); format: functional;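 note: NIH-3T3 mouse fibroblasts cultured with fluconazole at 8 µg/mL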
[23] = molecular target: T5, Carboxy-terminal domain RNA polymerase II polypeptide A small phosphatase 1 (Homo sapiens, UniProt Q9GZU7); assay: inhibitors of CTDSP1, concentration-response testing, biochemical assay, absorbance-based, actives from ultra-high-throughput screening (AID 540297); format: functional
T5 sequence (Q9GZU7 whole entry): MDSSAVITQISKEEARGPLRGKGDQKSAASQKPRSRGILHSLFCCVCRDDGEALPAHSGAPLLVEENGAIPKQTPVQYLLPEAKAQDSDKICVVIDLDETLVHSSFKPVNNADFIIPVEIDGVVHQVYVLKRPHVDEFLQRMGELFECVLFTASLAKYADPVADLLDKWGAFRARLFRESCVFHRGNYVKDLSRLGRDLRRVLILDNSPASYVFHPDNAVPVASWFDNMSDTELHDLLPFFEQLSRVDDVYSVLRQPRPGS

[24] = C. albicans growth with fluconazole, confirmation, fluorescence, retest (AID 2467); format: functional, cell-based
[25] = molecular target: 72 kDa type IV collagenase (Homo sapiens, UniProt P08253); assay: Dose Response validation of uHTS RPN11 inhibitor hits using a MMP-2 Fluorescence assay.; format: functional
Chain of 72 kDa type IV collagenase (P08253 whole entry): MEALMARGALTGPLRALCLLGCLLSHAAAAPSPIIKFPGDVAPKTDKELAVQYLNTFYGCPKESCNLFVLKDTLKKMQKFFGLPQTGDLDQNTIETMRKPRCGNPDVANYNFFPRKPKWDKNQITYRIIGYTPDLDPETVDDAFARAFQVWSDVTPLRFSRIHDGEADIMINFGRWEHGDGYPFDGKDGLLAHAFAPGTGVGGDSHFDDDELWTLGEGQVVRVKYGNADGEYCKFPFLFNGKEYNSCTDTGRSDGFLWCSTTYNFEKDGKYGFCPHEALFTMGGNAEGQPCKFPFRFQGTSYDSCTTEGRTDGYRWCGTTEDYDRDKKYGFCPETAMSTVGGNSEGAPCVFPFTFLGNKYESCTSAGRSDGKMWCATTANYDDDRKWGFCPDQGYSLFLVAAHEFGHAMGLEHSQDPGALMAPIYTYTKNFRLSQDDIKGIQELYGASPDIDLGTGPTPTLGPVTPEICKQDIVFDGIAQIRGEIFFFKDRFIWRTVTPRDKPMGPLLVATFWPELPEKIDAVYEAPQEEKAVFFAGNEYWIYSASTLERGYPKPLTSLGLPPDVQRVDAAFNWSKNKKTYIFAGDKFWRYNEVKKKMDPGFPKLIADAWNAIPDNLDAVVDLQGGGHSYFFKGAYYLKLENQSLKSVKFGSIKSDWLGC

[26] = molecular target: T6, Rac GTPase-activating protein 1 (Homo sapiens, UniProt Q9H0H5); assay: MgcRacGAP GTPase-activating activity inhibitors, confirmation, biochemical, ADP Hunter fluorescence, primary and confirmatory (AID 624330); format: functional
T6 sequence (Q9H0H5 whole entry): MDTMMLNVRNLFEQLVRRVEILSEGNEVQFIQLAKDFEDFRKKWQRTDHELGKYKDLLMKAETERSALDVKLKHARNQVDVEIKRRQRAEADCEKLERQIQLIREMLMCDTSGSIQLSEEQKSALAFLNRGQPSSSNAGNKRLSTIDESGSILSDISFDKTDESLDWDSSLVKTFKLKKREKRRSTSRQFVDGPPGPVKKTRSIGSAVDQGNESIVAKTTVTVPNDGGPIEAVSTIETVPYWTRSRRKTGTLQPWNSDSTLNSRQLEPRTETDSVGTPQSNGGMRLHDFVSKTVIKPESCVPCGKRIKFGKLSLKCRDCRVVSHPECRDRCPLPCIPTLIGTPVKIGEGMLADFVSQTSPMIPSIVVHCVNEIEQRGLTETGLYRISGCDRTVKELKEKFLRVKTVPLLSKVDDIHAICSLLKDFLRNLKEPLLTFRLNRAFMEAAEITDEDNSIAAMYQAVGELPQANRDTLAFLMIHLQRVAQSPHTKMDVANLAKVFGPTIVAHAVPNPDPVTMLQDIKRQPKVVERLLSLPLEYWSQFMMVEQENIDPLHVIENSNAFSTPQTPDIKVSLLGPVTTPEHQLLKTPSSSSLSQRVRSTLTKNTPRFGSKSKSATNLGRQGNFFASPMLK

[27] = molecular target: 26S proteasome non-ATPase regulatory subunit 14 (Homo sapiens, UniProt O00487); assay: inhibition of proteasome subunit RPN11 – biochemical, fluorescence polarization, uHTS hits, confirmation (AID 602368); format: functional
Chain of 26S proteasome non-ATPase regulatory subunit 14 (O00487 whole entry): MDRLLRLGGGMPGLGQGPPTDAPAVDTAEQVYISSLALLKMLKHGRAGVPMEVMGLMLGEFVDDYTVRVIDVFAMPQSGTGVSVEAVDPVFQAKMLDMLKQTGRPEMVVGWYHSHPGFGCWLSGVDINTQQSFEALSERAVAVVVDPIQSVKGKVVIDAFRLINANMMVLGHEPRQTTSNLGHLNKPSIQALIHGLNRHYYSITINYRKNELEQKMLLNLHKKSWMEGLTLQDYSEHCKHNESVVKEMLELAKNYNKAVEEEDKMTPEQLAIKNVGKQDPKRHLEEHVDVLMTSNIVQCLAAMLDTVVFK

[28] = molecular target: Prothrombin (Bos taurus, UniProt P00735); assay: thrombin inhibition, dose response, biochemical, fluorescence polarization, uHTS hits (AID 602369); format: functional

N#Cc1cc2c(nc1SCC(=O)Nc1nccs1)CCCCC2
EC50 [1]: > 100 µM (not active)
IC50 [2]: 11.8 µM (inactive)
IC50 [3]: 14.9 µM (inactive)
EC50 [4]: > 50 µM (not active)

CN(CCc1ccccc1)C(=O)c1ccc(NC(=O)Cc2ccc(NC(=O)C3CCN(C(=O)C4CCC4)CC3)cc2)cc1
IC50 [5]: 16.9 µM (inactive)

Cc1ccccc1N1C(=O)NC(=O)/C(=C\NNC(=O)c2ccncc2)C1=O
AC50 [6]: 114 µM (active)

CCCN(C(=O)Cc1n[nH]c(N)n1)C1(C(=O)Nc2ccccc2C)CCCCC1
AC50 [7]: 17.8 µM (inconclusive)
AC50 [8]: 20 µM (inconclusive)
AC50 [9]: 90.8 µM (active)
AC50 [10]: 0.224 µM (inconclusive)

Cc1cc(NC(=O)CC(C)C)c(=O)n(Cc2ccccc2F)c1
AC50 [6]: 130 µM (active)

CC(Nc1nc(N2CCNCC2)nc2ccccc12)c1ccccc1 (centres undefined)
IC50 [11]: 13.8 µM (active)
EC50 [12]: 5.31 µM (active)
IC50 [13]: 37.9 µM (inactive)

C/C(CC(=O)Nc1ccc(F)cc1)=N\NC(=O)c1ccccn1
AC50 [9]: 89.2 µM (active)

Cc1nc2ccc(S(=O)(=O)Nc3cccc(-c4nc5cccnc5s4)c3)cc2s1
IC50 [14]: 2.01 µM (active)

CCCCSCc1[nH]c(O)nc1C(=O)CCCCC(=O)OCC
IC50 [5]: 4.76 µM (active)

CC(C)C1C(c2ccccc2)N(C)C(c2ccccc2)CC1(O)c1ccccc1 (centres undefined)
EC50 [15]: 2.22 µM (active)
EC50 [16]: > 60 µM (not active)
IC50 [2]: > 64.6 µM (inactive)
CC50 [17]: 25.3 µM (active)
IC50 [3]: > 64.6 µM (inactive)
EC50 [18]: 1.55 µM (active)
EC50 [19]: 7.03 µM (active)
AC50 [20]: 1.9 µM (active)
EC50 [21]: 2.43 µM (active)

COc1ccc(O)c(/C=N/NC(=O)c2c(C)nnn2-c2nonc2N)c1
EC50 [22]: > 150 µM (inconclusive)
IC50 [23]: 6.12 µM (active)
EC50 [24]: > 38 µM (not active)
IC50 [25]: > 100 µM (inactive)
IC50 [26]: 79.7 µM (active)
IC50 [27]: 13.1 µM (active)
IC50 [28]: 54.6 µM (active)

O=C(Nc1cccc(OC(F)(F)F)c1)C1Cc2c(-c3ccc4c(c3)OCO4)ccnc2O1 (centres undefined)
IC50 [14]: 3.19 µM (active)
